Measurements taken from US20200131669A1, “CYCLIC PEPTIDE COMPOUND HAVING HIGH MEMBRANE PERMEABILITY, AND LIBRARY CONTAINING SAME” (Chugai Seiyaku Kabushiki Kaisha, priority 2017, published 2020).
Starred links: 1 amine or outer side, 2 acyl side, 3 side chain; linkers in the order of their positions; H or OH if unused. Positions of bridges follow the written chain, without caps; N, C: chain ends. Non-standard residues stand in square brackets, D forms with d. Residues, ends and D or L forms follow the SMILES beside them. *: point of attachment. X18 = CC(C(=O)[C@H](COC(C)(C)C)N[*:1])[C@@H](Cc1ccccc1)C(=O)[*:2]; X19 = CC(C)[C@@H](C(=O)C[C@H](C(=O)[*:2])[C@@H](C)O)N(C)[*:1]; NMeAla(4-thiazolyl) = CN[C@@H](Cc1cscn1)C(=O)O; X16 = O=C(C1CCCCC1)[C@H](CC(=O)[*:2])N[*:1]; NMeF = CN[C@@H](Cc1ccccc1)C(=O)O; NMeGABA = CN(CCCC(=O)[*:2])[*:1]; NMeD = CN[C@@H](CC(=O)O)C(=O)O; NMeL = CN[C@@H](CC(C)C)C(=O)O; NMeV = CN[C@H](C(=O)O)C(C)C; NMeA = CN[C@@H](C)C(=O)O; Piperidide = C1CCN(*)CC1; dNMeA = CN[C@H](C)C(=O)O; Sar = CNCC(=O)O; tBu = CC(C)(C)*

Assay: Caco-2 membrane permeability, improved method as used in the following Examples (96-well, 20 to 24 h preincubation)
Type: in vitro ADME
Conditions: human, Caco-2, Caco-2 (cm/sec)
Method in brief: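 Caco-2 monolayers were grown three weeks and preincubated 20–24 h at 37 °C with compound in DMEM+FaSSIF (1% DMSO) apically. The assay then used compound in FaSSIF/HBSS (1% DMSO, pH 6.0) apically and HBSS with 4% BSA (pH 7.4) basally. Basal samples were taken at 180 min for LC/MS, and Papp (cm/sec) was calculated.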

Question: Which Papp A→B at 180 min does the source give for CC(C)C[C@@H]1NC(=O)[C@H](Cc2ccccc2)N(C)C(=O)[C@H](C)NC(=O)C[C@@H](C(=O)N2CCCCC2)N(C)C(=O)[C@H](Cc2ccccc2)N(C)C(=O)[C@H](Cc2ccccc2)N(C)C(=O)[C@H](COC(C)(C)C)NC(=O)[C@H](CC(C)C)N(C)C(=O)CN(C)C(=O)[C@H]([C@@H](C)O)NC(=O)[C@H](CC(C)C)N(C)C1=O [pd209] (A[NMeF]L[NMeL]T[Sar][NMeL]S(tBu)[NMeF][NMeF][NMeD]-Piperidide; lactam N-11) here?
Answer: 1.7 ×10⁻⁶ cm/s

Question: With CC(C)C[C@H]1C(=O)N[C@@H](COC(C)(C)C)C(=O)N(C)[C@@H](Cc2ccccc2)C(=O)N(C)[C@@H](CC(C)C)C(=O)N[C@H](C(=O)N2CCCCC2)CC(=O)N[C@H](C(C)C)C(=O)N(C)[C@@H](Cc2ccccc2)C(=O)N[C@@H](C(C)C)C(=O)N(C)[C@@H](Cc2ccccc2)C(=O)N[C@@H]([C@@H](C)O)C(=O)N(C)CC(=O)N1C [pd210] ([dV][NMeF]V[NMeF]T[Sar][NMeL]S(tBu)[NMeF][NMeL]D-Piperidide; lactam N-11) as the molecule, how does the Papp A→B at 180 min read?
Answer: 1.6 ×10⁻⁶ cm/s

Question: For CC(C)C[C@@H]1NC(=O)[C@H](CC(C)C)N(C)C(=O)[C@H](C)N(C)C(=O)C[C@@H](C(=O)N2CCCCC2)NC(=O)[C@H](CC(C)C)N(C)C(=O)[C@H](Cc2ccccc2)N(C)C(=O)[C@H](Cc2ccccc2)N(C)C(=O)[C@H]([C@@H](C)O)NC(=O)[C@H](Cc2ccccc2)N(C)C1=O [pd211] ([NMeA][NMeL]L[NMeF]T[NMeF][NMeF][NMeL]D-Piperidide; lactam N-9), which Papp A→B at 180 min is on record?
Answer: 1.4 ×10⁻⁶ cm/s

Question: With CC(C)C[C@H]1C(=O)N[C@H](C(=O)N(C)[C@@H](Cc2ccccc2)C(=O)N[C@@H](C)C(=O)N2CCCCC2)CC(=O)N(C)[C@@H](C)C(=O)N[C@@H]([C@@H](C)O)C(=O)N(C)[C@@H](C)C(=O)N(C)[C@@H](CC(C)C)C(=O)N[C@@H](C(C)C)C(=O)N(C)[C@@H](Cc2ccccc2)C(=O)N[C@@H](Cc2ccccc2)C(=O)N1C [pd212] ([NMeA]T[NMeA][NMeL]V[NMeF]F[NMeL]D[NMeF]A-Piperidide; lactam N-9) as the molecule, how does the Papp A→B at 180 min read?
Answer: 1.4 ×10⁻⁶ cm/s

Question: For CC(C)C[C@@H]1NC(=O)[C@H](Cc2ccccc2)N(C)C(=O)[C@H](COC(C)(C)C)NC(=O)[C@H](Cc2ccccc2)N(C)C(=O)[C@H](C)N(C)C(=O)[C@H](CC(C)C)N(C)C(=O)[C@H](C)N(C)C(=O)C[C@@H](C(=O)N2CCCCC2)N(C)C(=O)[C@H](Cc2ccccc2)N(C)C(=O)[C@H]([C@@H](C)O)CC(=O)[C@H](C(C)C)N(C)C1=O [pd213] ([NMeA][NMeL][NMeA][NMeF]S(tBu)[NMeF]L[X19][NMeF][NMeD]-Piperidide; lactam N-10), which Papp A→B at 180 min is on record?
Answer: 1.3 ×10⁻⁶ cm/s

Question: Which Papp A→B at 180 min does the source give for CC(C)C[C@@H]1NC(=O)[C@H](Cc2ccccc2)N(C)C(=O)[C@H](COC(C)(C)C)NC(=O)[C@H](Cc2ccccc2)N(C)C(=O)[C@H](C)N(C)C(=O)[C@H](CC(C)C)N(C)C(=O)[C@@H]2CCCN2C(=O)N[C@@H](C(=O)N2CCCCC2)NC(=O)[C@H](Cc2ccccc2)N(C)C(=O)[C@H]([C@@H](C)O)NC(=O)[C@H](CC(C)C)N(C)C1=O [pd214] here?
Answer: 1.2 ×10⁻⁶ cm/s

Question: Which Papp A→B at 180 min does the source give for CC(C)C[C@@H]1NC(=O)[C@H](Cc2ccccc2)N(C)C(=O)[C@@H](C(C)C)NC(=O)C[C@@H](C(=O)N2CCCCC2)NC(=O)[C@H](Cc2ccccc2)N(C)C(=O)[C@H](Cc2ccccc2)N(C)C(=O)[C@H](COC(C)(C)C)NC(=O)[C@H](CC(C)C)N(C)C(=O)CN(C)C(=O)[C@H]([C@@H](C)O)NC(=O)[C@H](CC(C)C)N(C)C1=O [pd215] ([dV][NMeF]L[NMeL]T[Sar][NMeL]S(tBu)[NMeF][NMeF]D-Piperidide; lactam N-11) here?
Answer: 1.2 ×10⁻⁶ cm/s

Question: Which Papp A→B at 180 min does the source give for CC(C)C[C@H]1C(=O)N[C@@H](C(C)C)C(=O)N(C)[C@@H](Cc2ccccc2)C(=O)N(C)[C@@H](Cc2ccccc2)C(=O)N[C@@H](COC(C)(C)C)C(=O)N(C)[C@@H](CC(C)C)C(=O)N[C@@H]([C@@H](C)O)C(=O)N(C)[C@@H](Cc2ccccc2)C(=O)N(C)[C@@H](CC(C)C)C(=O)N[C@H](C(=O)C2CCCCC2)CC(=O)N(C)CCCC(=O)N1C [pd216] (cyclo([NMeF][NMeF]S(tBu)[NMeL]T[NMeF][NMeL][X16][NMeGABA][NMeL]V)) here?
Answer: 1.2 ×10⁻⁶ cm/s

Question: With CC(C)C[C@@H]1NC(=O)[C@H](Cc2ccccc2)N(C)C(=O)[C@H](C)NC(=O)C[C@@H](C(=O)N2CCCCC2)NC(=O)[C@H](Cc2ccccc2)N(C)C(=O)[C@H](Cc2ccccc2)N(C)C(=O)[C@H](COC(C)(C)C)NC(=O)[C@H](CC(C)C)N(C)C(=O)CN(C)C(=O)[C@H]([C@@H](C)O)NC(=O)[C@H](CC(C)C)N(C)C1=O [pd217] (A[NMeF]L[NMeL]T[Sar][NMeL]S(tBu)[NMeF][NMeF]D-Piperidide; lactam N-11) as the molecule, how does the Papp A→B at 180 min read?
Answer: 1.1 ×10⁻⁶ cm/s

Question: For CC(C)C[C@@H]1NC(=O)[C@H](CC(C)C)N(C)C(=O)[C@H](C)N(C)C(=O)C[C@@H](C(=O)N(C)[C@@H](Cc2ccccc2)C(=O)N[C@@H](C)C(=O)N2CCCCC2)NC(=O)[C@H]([C@@H](C)O)NC(=O)[C@H](CC(C)C)N(C)C(=O)[C@H](Cc2ccccc2)NC(=O)[C@H](Cc2ccccc2)N(C)C(=O)[C@H](CC(C)C)N(C)C1=O [pd218] ([NMeA][NMeL]L[NMeL][NMeF]F[NMeL]TD[NMeF]A-Piperidide; lactam N-9), which Papp A→B at 180 min is on record?
Answer: 1.1 ×10⁻⁶ cm/s

Question: With CC(C)C[C@@H]1NC(=O)[C@H](Cc2ccccc2)C(C)C(=O)[C@H](COC(C)(C)C)NC(=O)[C@H](Cc2ccccc2)N(C)C(=O)[C@H](C)N(C)C(=O)[C@H](CC(C)C)N(C)C(=O)[C@H]2CCCN2C(=O)C[C@@H](C(=O)N2CCCCC2)N(C)C(=O)[C@H](Cc2ccccc2)N(C)C(=O)[C@H]([C@@H](C)O)NC(=O)[C@H](C(C)C)N(C)C1=O (stereo partly drawn) [pd219] ([dP][NMeL][NMeA][NMeF][X18]L[NMeV]T[NMeF][NMeD]-Piperidide; lactam N-10) as the molecule, how does the Papp A→B at 180 min read?
Answer: 1.1 ×10⁻⁶ cm/s

Question: Which Papp A→B at 180 min does the source give for CC(C)C[C@@H]1NC(=O)[C@H](Cc2ccccc2)N(C)C(=O)[C@H](COC(C)(C)C)NC(=O)[C@H](Cc2ccccc2)N(C)C(=O)[C@H](C)N(C)C(=O)[C@H](CC(C)C)N(C)C(=O)[C@@H](C)NC(=O)C[C@@H](C(=O)N2CCCCC2)NC(=O)[C@H](Cc2ccccc2)N(C)C(=O)[C@H]([C@@H](C)O)NC(=O)[C@H](CC(C)C)N(C)C1=O [pd220] ([dA][NMeL][NMeA][NMeF]S(tBu)[NMeF]L[NMeL]T[NMeF]D-Piperidide; lactam N-11) here?
Answer: 1.1 ×10⁻⁶ cm/s

Question: With CC(C)C[C@@H]1NC(=O)[C@H](Cc2ccccc2)N(C)C(=O)[C@@H](C(C)C)NC(=O)C[C@@H](C(=O)N2CCCCC2)NC(=O)[C@H](Cc2ccccc2)N(C)C(=O)[C@H](Cc2ccccc2)N(C)C(=O)[C@H](C(C)C)NC(=O)[C@H](CC(C)C)N(C)C(=O)CN(C)C(=O)[C@H]([C@@H](C)O)NC(=O)[C@H](CC(C)C)N(C)C1=O [pd221] ([dV][NMeF]L[NMeL]T[Sar][NMeL]V[NMeF][NMeF]D-Piperidide; lactam N-11) as the molecule, how does the Papp A→B at 180 min read?
Answer: 1.1 ×10⁻⁶ cm/s

Question: With CC(C)C[C@@H]1NC(=O)[C@H](Cc2ccccc2)N(C)C(=O)[C@H](CC(C)C)N(C)C(=O)[C@@H](C)N(C)C(=O)C[C@@H](C(=O)N2CCCCC2)NC(=O)[C@H](CC(C)C)N(C)C(=O)[C@H](Cc2ccccc2)N(C)C(=O)[C@H]([C@@H](C)O)NC(=O)[C@H](Cc2ccccc2)N(C)C1=O [pd223] ([dNMeA][NMeL][NMeF]L[NMeF]T[NMeF][NMeL]D-Piperidide; lactam N-9) as the molecule, how does the Papp A→B at 180 min read?
Answer: 1.1 ×10⁻⁶ cm/s

Question: With CC(C)C[C@@H]1NC(=O)[C@H](Cc2ccccc2)N(C)C(=O)[C@@H](C)NC(=O)C[C@@H](C(=O)N2CCCCC2)N(C)C(=O)[C@H](Cc2ccccc2)N(C)C(=O)[C@H](Cc2ccccc2)N(C)C(=O)[C@H](COC(C)(C)C)NC(=O)[C@H](CC(C)C)N(C)C(=O)CN(C)C(=O)[C@H]([C@@H](C)O)NC(=O)[C@H](CC(C)C)N(C)C1=O [pd224] ([dA][NMeF]L[NMeL]T[Sar][NMeL]S(tBu)[NMeF][NMeF][NMeD]-Piperidide; lactam N-11) as the molecule, how does the Papp A→B at 180 min read?
Answer: 1 ×10⁻⁶ cm/s

Question: Which Papp A→B at 180 min does the source give for CC[C@H](C)[C@@H]1NC(=O)[C@H](CC(C)C)N(C)C(=O)CN(C)C(=O)[C@H]([C@@H](C)O)NC(=O)[C@H](Cc2ccccc2)N(C)C(=O)[C@H](CC(C)C)NC(=O)[C@H](Cc2ccccc2)N(C)C(=O)[C@@H](CC(C)C)NC(=O)C[C@@H](C(=O)N2CCCCC2)NC(=O)[C@H](CC(C)C)N(C)C(=O)[C@H](Cc2ccccc2)N(C)C1=O [pd225] ([dL][NMeF]L[NMeF]T[Sar][NMeL]I[NMeF][NMeL]D-Piperidide; lactam N-11) here?
Answer: 1 ×10⁻⁶ cm/s

Question: Which Papp A→B at 180 min does the source give for CC(C)C[C@@H]1NC(=O)[C@H](Cc2ccccc2)N(C)C(=O)[C@H](C)N(C)C(=O)C[C@@H](C(=O)N2CCCCC2)NC(=O)[C@H](CC(C)C)N(C)C(=O)[C@H](Cc2ccccc2)N(C)C(=O)[C@H](Cc2ccccc2)NC(=O)[C@H](Cc2cscn2)N(C)C(=O)[C@H](C)N(C)C(=O)[C@H]([C@@H](C)O)NC(=O)[C@H](CC(C)C)N(C)C1=O [pd226] ([NMeA][NMeF]L[NMeL]T[NMeA][NMeAla(4-thiazolyl)]F[NMeF][NMeL]D-Piperidide; lactam N-11) here?
Answer: 0.68 ×10⁻⁶ cm/s

Same assay, conditions: human, Caco-2; read-out: Caco-2

Question: For CC[C@H](C)[C@@H]1NC(=O)[C@H](C)N(C)C(=O)C[C@@H](C(=O)N(C)[C@@H](Cc2ccccc2)C(=O)N[C@@H](C)C(=O)N2CCCCC2)NC(=O)[C@H](Cc2ccccc2)N(C)C(=O)CN(C)C(=O)[C@H]([C@@H](C)O)NC(=O)[C@H](C)N(C)C(=O)[C@H](C(C)C)N(C)C(=O)[C@H](Cc2ccccc2)NC(=O)[C@H](CC(C)C)N(C)C(=O)[C@H](CC(C)C)N(C)C1=O [pd222] ([NMeA]I[NMeL][NMeL]F[NMeV][NMeA]T[Sar][NMeF]D[NMeF]A-Piperidide; lactam N-11), which Papp A→B at 180 min is on record?
Answer: 1.1 ×10⁻⁶ cm/s
